Experimental data as given in US10906896B2, “Compositions and methods for inhibiting kinases” (Inhibikase Therapeutics, Inc., priority 2015, dated 2021).

Tests used:
c-Abl1 = c-Abl1 (Homo sapiens (Human), UniProt P00519); assay: c-Abl1 IC50 (FAM-labeled peptide kinase assay); format: biochemical
Protocol: Measurement of c-Abl1, c-Abl2 and c-Kit IC50 Values
For the assay of enzyme inhibitions, 5 μl of each well from the intermediate plate is transferred to a 384-well plate in duplicates, 10. […] Then enzyme substrate is added as 10 μl of 2.5×FAM-labeled peptide+ATP solution to each well of the 384-well assay plate. The reaction is allowed to proceed at 28° C. and quenched with the addition of 25 μl of stop buffer. The release of fluorescent FAM is quantitated as Percent inhibition=(max−conversion)/(max−min)*100. ? “max” stands for DMSO control; “min” stands for low control. Data are fit in XLFit excel add-in version 4.3.1 to obtain IC50 values. Equation used is: Y=Bottom+(Top−Bottom)/(1+(IC50/X)^HillSlope)

[1] = test system: Ba/F3 cells harboring BCR-ABL F359V; assay: Ba/F3 proliferation, BCR-ABL F359V; format: cell-based; details: 48 hrs, IL-3 withdrawn
[2] = test system: Ba/F3 cells harboring BCR-ABL T315I; assay: Ba/F3 proliferation, BCR-ABL T315I; format: cell-based; details: 48 hrs, IL-3 withdrawn
Protocol: (§1) IL-3 was subsequently withdrawn from these populations.
(§2) Final concentrations of each compound were 10 μM, 1 μM, 100 nM, 10 nM, 1 nM, 0.1 nM, 0 nM (plus a blank-media only).

[3] = test system: Ba/F3 cells harboring BCR-ABL E255V; assay: Ba/F3 proliferation, BCR-ABL E255V; format: cell-based; details: 48 hrs, IL-3 withdrawn
Protocol: as §1, §2

[4] = test system: untransduced Ba/F3 cells grown in the presence of IL-3; assay: Ba/F3 proliferation, parental cells (Cell Titer Glo); format: cell-based; details: 48 hrs, with IL-3
Protocol: as §1, §2

[5] = test system: Ba/F3 cells harboring BCR-ABL E255K; assay: Ba/F3 proliferation, BCR-ABL E255K; format: cell-based; details: 48 hrs, IL-3 withdrawn
BCR-ABL = details: cited from earlier work
[6] = test system: Ba/F3 cells harboring BCR-ABL Y253H; assay: Ba/F3 proliferation, BCR-ABL Y253H; format: cell-based; details: 48 hrs, IL-3 withdrawn
Protocol: as §1, §2

[7] = test system: JCV laboratory strain MAD-1; assay: JCV antiviral potency in Cos 7 cells; format: cell-based, JC polyomavirus (JCV)

Sequence of c-Abl1 (P00519 whole entry): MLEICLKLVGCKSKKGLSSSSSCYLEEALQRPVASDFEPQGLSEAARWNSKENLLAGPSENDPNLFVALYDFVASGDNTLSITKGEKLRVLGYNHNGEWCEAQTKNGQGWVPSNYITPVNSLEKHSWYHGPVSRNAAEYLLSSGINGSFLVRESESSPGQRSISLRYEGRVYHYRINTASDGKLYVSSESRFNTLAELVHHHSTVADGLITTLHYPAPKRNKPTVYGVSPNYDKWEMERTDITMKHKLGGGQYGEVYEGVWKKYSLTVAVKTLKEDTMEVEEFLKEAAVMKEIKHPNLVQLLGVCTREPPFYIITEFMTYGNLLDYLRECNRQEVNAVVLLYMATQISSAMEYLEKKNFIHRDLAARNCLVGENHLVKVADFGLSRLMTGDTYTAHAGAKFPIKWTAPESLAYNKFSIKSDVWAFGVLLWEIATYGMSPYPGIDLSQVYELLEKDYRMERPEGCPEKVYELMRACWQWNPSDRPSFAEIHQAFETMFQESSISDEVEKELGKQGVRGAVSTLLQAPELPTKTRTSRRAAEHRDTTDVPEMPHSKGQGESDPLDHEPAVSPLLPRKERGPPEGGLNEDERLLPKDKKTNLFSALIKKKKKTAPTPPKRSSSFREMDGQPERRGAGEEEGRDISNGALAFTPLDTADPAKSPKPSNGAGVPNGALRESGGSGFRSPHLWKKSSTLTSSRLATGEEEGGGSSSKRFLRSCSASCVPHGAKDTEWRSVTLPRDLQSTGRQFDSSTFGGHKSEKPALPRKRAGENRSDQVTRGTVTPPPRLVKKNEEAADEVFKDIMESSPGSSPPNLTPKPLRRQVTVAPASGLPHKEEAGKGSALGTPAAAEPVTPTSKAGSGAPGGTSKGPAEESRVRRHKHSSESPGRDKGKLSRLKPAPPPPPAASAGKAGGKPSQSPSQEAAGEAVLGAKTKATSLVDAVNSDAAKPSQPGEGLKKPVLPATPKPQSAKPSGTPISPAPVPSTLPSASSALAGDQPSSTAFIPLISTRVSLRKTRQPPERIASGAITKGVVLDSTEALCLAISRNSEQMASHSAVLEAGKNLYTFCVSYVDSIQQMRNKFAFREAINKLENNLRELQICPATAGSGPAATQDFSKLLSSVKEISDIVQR

Compound | IC50 (c-Abl1) | IC50 [1] | IC50 [2] | IC50 [3] | IC50 [4] | IC50 [5] | potency as an inhibitor of BCR-ABL relative to Gleevec (BCR-ABL) | IC50 [6] | antiviral activity against JCV [7]
Cc1ccc(NC(=O)c2ccc(CN3CCN(C)CC3)cc2)cc1Nc1nccc(-c2cncc(-c3snnc3C)c2)n1 [Compound 8240] | > 1000 nM | – | – | – | – | – | – | – | –
Cc1ccc(-c2cncc(-c3ccnc(Nc4cc(NC(=O)c5ccc(CN6CCN(C)CC6)cc5)ccc4C)n3)c2)nc1 [Compound 820] | – | 260 nM | 2300 nM | 2670 nM | 2480 nM | 204 nM | – | – | –
Cc1ccc(NC(=O)c2ccc(CN3CCN(C)CC3)cc2)cc1Nc1nccc(-c2cncc(-c3ccn(C)n3)c2)n1 [Compound 832] | – | 46.7 nM | 2590 nM | 661 nM | 2480 nM | 90.9 nM | – | – | –
Cc1ccc(NC(=O)c2ccc(CN3CCN(C)CC3)cc2)cc1Nc1nccc(-c2cncc(-c3nccs3)c2)n1 [Compound 8270] | – | 203 nM | 2790 nM | 1030 nM | 2520 nM | 45.9 nM | – | – | –
Cc1cn(-c2cc(NC(=O)c3ccc(C)c(Nc4nccc(-c5cccnc5)n4)c3)cc(C(F)(F)F)c2)cn1 [Tasigna, nilotinib] | – | – | – | – | – | – | ≤ 20 × | – | –
Cc1cc(-c2cncc(-c3ccnc(Nc4cc(NC(=O)c5ccc(CN6CCN(C)CC6)cc5)ccc4C)n3)c2)sn1 [Compound 8190] | – | 236 nM | 2680 nM | 997 nM | 2240 nM | 390 nM | – | – | –
Cc1cc(NC(=O)C2=NN=C(c3cncc(-c4ccnc(Nc5cc(NC(=O)c6ccc(CN7CCN(C)CC7)cc6)ccc5C)n4)c3)C2)ccn1 [Compound 103] | – | 135 nM | 2910 nM | 1200 nM | 2920 nM | 196 nM | – | 2590 nM | –
Cc1ccc(NC(=O)c2ccc(CN3CCN(C)CC3)cc2)cc1Nc1nccc(-c2cncc(C3=NN=C(C(=O)Nc4cn[nH]c4)C3)c2)n1 [Compound 118] | – | – | – | – | – | – | – | – | little antiviral activity
Cc1csc(-c2cncc(-c3ccnc(Nc4cc(NC(=O)c5ccc(CN6CCN(C)CC6)cc5)ccc4C)n3)c2)n1 [Compound 8290] | – | 375 nM | 2480 nM | 1440 nM | 2580 nM | 80.4 nM | – | – | –
Cc1cc(NC(=O)C2=NN=C(c3cncc(-c4ccnc(Nc5cc(NC(=O)c6ccc(CN7CCN(C)CC7)cc6)ccc5C)n4)c3)C2)[nH]n1 [Compound 113] | – | 161 nM | 2120 nM | 739 nM | 2060 nM | 46.9 nM | – | 1430 nM | –
Cc1cnc(-c2cncc(-c3ccnc(Nc4cc(NC(=O)c5ccc(CN6CCN(C)CC6)cc5)ccc4C)n3)c2)s1 [Compound 8280] | – | 251 nM | 2770 nM | 2390 nM | 2610 nM | 234 nM | – | – | –
